Assay results reported in patent US20200247897A1, “THERAPEUTIC ANTIBODIES BASED ON MUTATED IGG HEXAMERS” (GENMAB B.V., priority 2017, published 2020).

System: panel of 235 cell lines representing 14 tumor lineages
Assay: ATPlite growth inhibition screening of a human cancer cell line panel (Horizon Discovery)
Format: cell-based
Description: A 72 hour ATPlite assay (except for DLD-1 and HCT116 cell lines, for which a 120 hour assay was performed) with growth inhibition analysis was performed in two parts at Horizon Discovery Ltd, UK. Samples were tested as four replicates in 384-well assay plates. Serial dilution series of antibody, starting from 0.072 μM final concentration was used for all tested cell lines. For TRAIL (Invitrogen; Cat # PHC1634) serial dilution series starting from 0.01 μM final concentration for the cell lines tested in the first part and 0.17 μM final concentration for the cell lines tested in the second part of the screening was used.

[1] = 59M, ovary cancer, screening #1
[2] = 769-P, kidney cancer, screening #2
[3] = 786-0, kidney cancer, screening #2
[4] = 5637, bladder cancer, screening #2
[5] = A172, neural tissue cancer, screening #2
[6] = ACHN, kidney cancer, screening #2
[7] = CAL-54, kidney cancer, screening #1
[8] = COLO-783, melanoma, screening #1
[9] = COR-L23-CPR, NSCLC, screening #1
[10] = COV434, ovary cancer, screening #1
[11] = COV644, ovary cancer, screening #1
[12] = G-402, kidney cancer, screening #2
[13] = HCC1937, breast cancer (TNBC), screening #2
[14] = HT-1197, bladder cancer, screening #2
[15] = HT-1376, bladder cancer, screening #2
[16] = Hs 294T, melanoma, screening #1
[17] = HuP-T3, pancreatic cancer, screening #1
[18] = J82, bladder cancer, screening #1
[19] = JHOM-1, ovary cancer, screening #1

TRAIL: natural DR5 ligand, recombinant human TRAIL/APO-2L
IC50 [1]: 0.049 nM
Max Inhibition [1]: 98.5%
IC50 [2]: 1.94 nM
Max Inhibition [2]: 39.4%
IC50 [3]: 288 nM
Max Inhibition [3]: 2.6%
IC50 [4]: 0.06 nM
Max Inhibition [4]: 99.1%
IC50 [5]: 0.029 nM
Max Inhibition [5]: 98.2%
Max Inhibition (A375, melanoma, screening #1): 47.1%
IC50 (A498, kidney cancer, screening #2): 0.079 nM
IC50 (A704, kidney cancer, screening #1): 3.44 nM
IC50 [6]: 0.356 nM
Max Inhibition [6]: 32.4%
Max Inhibition (BEN, NSCLC, screening #1): 8.1%
IC50 (BT-20, breast cancer (TNBC), screening #2): 0.089 nM
IC50 (BT-549, breast cancer (TNBC), screening #2): 0.285 nM
Max Inhibition (BxPC-3, pancreatic cancer, screening #1): 46.5%
Max Inhibition (CAKI-2, kidney cancer, screening #1): 5.7%
Max Inhibition (CAL-12T, NSCLC, screening #1): 11.9%
IC50 [7]: 0.268 nM
Max Inhibition [7]: 71.6%
Max Inhibition (CAPAN-2, pancreatic cancer, screening #1): 4.8%
Max Inhibition (CFPAC-1, pancreatic cancer, screening #1): 13.2%
IC50 (CL-11, colorectal cancer, screening #1): 1.32 nM
IC50 (CL-34, colorectal cancer, screening #1): 0.024 nM
IC50 (CL-40, colorectal cancer, screening #1): 1.98 nM
Max Inhibition (COLO858, melanoma, screening #1): 12.6%
IC50 (COLO-201, colorectal cancer, screening #1): 0.168 nM
IC50 (COLO-205, colorectal cancer, screening #1): 2.27 nM
IC50 (COLO-206F, colorectal cancer, screening #1): 0.146 nM
Max Inhibition (COLO-679, melanoma, screening #1): 24.9%
Max Inhibition (COLO-699, NSCLC, screening #1): 2.8%
IC50 [8]: 0.224 nM
Max Inhibition [8]: 80.9%
Max Inhibition (COLO-800, melanoma, screening #1): 33.5%
Max Inhibition (COLO-818, melanoma, screening #1): 7.8%
Max Inhibition (COLO-849, melanoma, screening #1): 17.6%
IC50 [9]: 5.48 nM
Max Inhibition [9]: 58.4%
Max Inhibition (COR-L105, NSCLC, screening #1): 35.7%
IC50 [10]: 0.395 nM
Max Inhibition [10]: 73.1%
Max Inhibition (COV504, ovary cancer, screening #1): 11.7%
IC50 [11]: 0.271 nM
Max Inhibition [11]: 74.9%
Max Inhibition (Calu-1, NSCLC, screening #1): 22.0%
IC50 (DBTRG-05MG, neural tissue cancer, screening #2): 0.087 nM
IC50 (DLD-1, colorectal cancer, screening #1): 3.95 nM
IC50 (DLD-1_BRCA2 (−/−), colorectal cancer, screening #1): 0.516 nM
IC50 (DU-4475, breast cancer (TNBC), screening #2): 0.079 nM
IC50 (DV-90, NSCLC, screening #1): 1.19 nM
Max Inhibition (DV-90, NSCLC, screening #1): 96.1%
Max Inhibition (EPLC-272H, NSCLC, screening #1): 51.7%
IC50 (FTC-238, head and neck cancer, screening #1): 3.92 nM
IC50 (G-401, kidney cancer, screening #2): 0.068 nM
IC50 [12]: 0.173 nM
Max Inhibition [12]: 15.0%
IC50 (GP2D, colorectal cancer, screening #1): 0.003 nM
IC50 (GSU, gastric cancer, screening #1): 0.454 nM
IC50 (H4, neural tissue cancer, screening #2): 0.007 nM
IC50 (HCC38, breast cancer (TNBC), screening #2): 0.08 nM
IC50 (HCC70, breast cancer (TNBC), screening #2): 347 nM
IC50 (HCC1187, breast cancer (TNBC), screening #2): 0.066 nM
IC50 (HCC1806, breast cancer (TNBC), screening #2): 0.05 nM
IC50 [13]: 0.647 nM
Max Inhibition [13]: 28.5%
IC50 (HCT-15, colorectal cancer, screening #1): 0.129 nM
IC50 (HCT-116_ARID1A (Q456*/Q456*), colorectal cancer, screening #1): 10.5 nM
IC50 (HCT-116_KRAS (+/−), colorectal cancer, screening #1): 0.253 nM
IC50 (HCT-116_PIK3A (+/−)KO mt H1047R, colorectal cancer, screening #1): 1.25 nM
IC50 (HEC-108, endometrial cancer, screening #1): 1.48 nM
IC50 (HEC-265, endometrial cancer, screening #1): 0.021 nM
Max Inhibition (HLC-1, NSCLC, screening #1): 32.6%
IC50 (HLE, liver cancer, screening #1): 8.36 nM
IC50 (HMC-1-8, breast cancer (TNBC), screening #2): 0.232 nM
Max Inhibition (HMCB, melanoma, screening #1): 1.0%
Max Inhibition (HOP-62, NSCLC, screening #1): 55.6%
Max Inhibition (HPAF-II, pancreatic cancer, screening #1): 13.3%
IC50 (HRT-186, colorectal cancer, screening #1): 9.24 nM
IC50 (HT55, colorectal cancer, screening #1): 0.11 nM
IC50 (HT-115, colorectal cancer, screening #1): 0.107 nM
IC50 [14]: 0.167 nM
Max Inhibition [14]: 31.8%
IC50 [15]: 160 nM
Max Inhibition [15]: 10.6%
IC50 [16]: 0.019 nM
Max Inhibition [16]: 91.1%
Max Inhibition (Hs 936.T, melanoma, screening #1): 20.7%
IC50 [17]: 0.223 nM
Max Inhibition [17]: 88.4%
Max Inhibition (IGR-1, melanoma, screening #1): 23.3%
Max Inhibition (IGR-37, melanoma, screening #1): 18.0%
Max Inhibition (IGR-39, melanoma, screening #1): 20.1%
Max Inhibition (IPC-298, melanoma, screening #1): 5.7%
IC50 [18]: 33.6 nM
Max Inhibition [18]: 11.5%
Max Inhibition (JHOC-5, ovary cancer, screening #1): 18.4%
IC50 [19]: 0.596 nM
Max Inhibition [19]: 58.1%
Max Inhibition (JHOM-2B, ovary cancer, screening #1): 21.7%
Max Inhibition (JHOS-4, ovary cancer, screening #1): 12.5%
IC50 (JHUEM-2, endometrial cancer, screening #1): 0.165 nM
Max Inhibition (KLM-1, pancreatic cancer, screening #1): 12.7%
IC50 (KNS-81, neural tissue cancer, screening #2): 0.013 nM
Max Inhibition (KP-2, pancreatic cancer, screening #1): 3.9%
Max Inhibition (KP-3, pancreatic cancer, screening #1): 23.5%
Max Inhibition (KP-4, pancreatic cancer, screening #1): 23.6%
